Test results: PubChem BioAssay (NCI)
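Test compounds were applied to cells in 96-well plates for 48 hours at 5 doses. TGI is the concentration that stops growth completely.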

Tests used:
Test in all cases: growth of human tumour cells (NCI), 48 h
MDA-MB-231 breast = test system: MDA-MB-231 breast
OVCAR-8 ovarian = test system: OVCAR-8 ovarian
SW-620 colon = test system: SW-620 colon
UACC-62 melanoma = test system: UACC-62 melanoma
CAKI-1 renal = test system: CAKI-1 renal
NCI-H522 lung = test system: NCI-H522 lung
HL-60(TB) leukemia = test system: HL-60(TB) leukemia
NCI-H226 lung = test system: NCI-H226 lung
OVCAR-5 ovarian = test system: OVCAR-5 ovarian
SN12C renal = test system: SN12C renal
RXF 393 renal = test system: RXF 393 renal
OVCAR-3 ovarian = test system: OVCAR-3 ovarian
ACHN renal = test system: ACHN renal
EKVX NSCLC = test system: EKVX NSCLC
MDA-N = test system: MDA-N
HS 578T breast = test system: HS 578T breast
HCT-15 colon = test system: HCT-15 colon
A549 NSCLC = test system: A549 NSCLC
OVCAR-4 ovarian = test system: OVCAR-4 ovarian
HT29 colon = test system: HT29 colon
HOP-62 NSCLC = test system: HOP-62 NSCLC
MALME-3M melanoma = test system: MALME-3M melanoma
SR leukemia = test system: SR leukemia
SK-MEL-2 melanoma = test system: SK-MEL-2 melanoma
UO-31 renal = test system: UO-31 renal
HCT-116 colon = test system: HCT-116 colon
U251 CNS = test system: U251 CNS
KM12 colon = test system: KM12 colon
DU-145 prostate = test system: DU-145 prostate
SNB-19 CNS = test system: SNB-19 CNS
SF-295 CNS = test system: SF-295 CNS
NCI-H460 lung = test system: NCI-H460 lung
HCC-2998 colon = test system: HCC-2998 colon
MDA-MB-435 = test system: MDA-MB-435
SK-MEL-28 melanoma = test system: SK-MEL-28 melanoma
SK-MEL-5 melanoma = test system: SK-MEL-5 melanoma
LOX IMVI melanoma = test system: LOX IMVI melanoma
PC-3 prostate = test system: PC-3 prostate
K-562 leukemia = test system: K-562 leukemia
M14 melanoma = test system: M14 melanoma
A498 renal = test system: A498 renal
UACC-257 melanoma = test system: UACC-257 melanoma
T-47D breast = test system: T-47D breast
IGROV1 ovarian = test system: IGROV1 ovarian
MOLT-4 leukemia = test system: MOLT-4 leukemia
SF-268 CNS = test system: SF-268 CNS
TK-10 renal = test system: TK-10 renal
HOP-92 NSCLC = test system: HOP-92 NSCLC
786-0 renal = test system: 786-0 renal
NCI/ADR-RES ovarian = test system: NCI/ADR-RES ovarian
NCI-H23 lung = test system: NCI-H23 lung
BT-549 breast = test system: BT-549 breast
CCRF-CEM leukemia = test system: CCRF-CEM leukemia
SK-OV-3 ovarian = test system: SK-OV-3 ovarian
MCF7 breast = test system: MCF7 breast
COLO 205 colon = test system: COLO 205 colon
SF-539 CNS = test system: SF-539 CNS
RPMI-8226 leukemia = test system: RPMI-8226 leukemia

Nc1nc(Cc2ccccc2)nc(Cc2ccccc2)c1-c1ccccc1
TGI (MDA-MB-231 breast): 49.1 µM
TGI (OVCAR-8 ovarian): > 100 µM
TGI (SW-620 colon): > 100 µM
TGI (UACC-62 melanoma): 43 µM
TGI (CAKI-1 renal): 96.1 µM
TGI (NCI-H522 lung): 46.1 µM
TGI (HL-60(TB) leukemia): 60.5 µM
TGI (NCI-H226 lung): 53.4 µM
TGI (OVCAR-5 ovarian): > 100 µM
TGI (SN12C renal): > 100 µM
TGI (RXF 393 renal): > 100 µM
TGI (OVCAR-3 ovarian): 37.2 µM
TGI (ACHN renal): > 100 µM
TGI (EKVX NSCLC): > 100 µM
TGI (MDA-N): 38.8 µM
TGI (HS 578T breast): > 100 µM
TGI (HCT-15 colon): 84.3 µM
TGI (A549 NSCLC): > 100 µM
TGI (OVCAR-4 ovarian): > 100 µM
TGI (HT29 colon): > 100 µM
TGI (HOP-62 NSCLC): 54 µM
TGI (MALME-3M melanoma): 50.2 µM
TGI (SR leukemia): 48.5 µM
TGI (SK-MEL-2 melanoma): 29.8 µM
TGI (UO-31 renal): > 100 µM
TGI (HCT-116 colon): 46 µM
TGI (U251 CNS): 37.1 µM
TGI (KM12 colon): 75 µM
TGI (DU-145 prostate): 56.1 µM
TGI (SNB-19 CNS): > 100 µM
TGI (SF-295 CNS): > 100 µM
TGI (NCI-H460 lung): > 100 µM
TGI (HCC-2998 colon): > 100 µM
TGI (MDA-MB-435): 59.3 µM
TGI (SK-MEL-28 melanoma): > 100 µM
TGI (SK-MEL-5 melanoma): 29.2 µM
TGI (LOX IMVI melanoma): 51.4 µM
TGI (PC-3 prostate): 77.7 µM
TGI (K-562 leukemia): > 100 µM
TGI (M14 melanoma): > 100 µM
TGI (A498 renal): 46.7 µM
TGI (UACC-257 melanoma): > 100 µM
TGI (T-47D breast): > 100 µM
TGI (IGROV1 ovarian): > 100 µM
TGI (MOLT-4 leukemia): 59.7 µM
TGI (SF-268 CNS): 85.9 µM
TGI (TK-10 renal): > 100 µM
TGI (HOP-92 NSCLC): 59.6 µM
TGI (786-0 renal): 70.5 µM
TGI (NCI/ADR-RES ovarian): 55 µM
TGI (NCI-H23 lung): 45.2 µM
TGI (BT-549 breast): 50.9 µM

C=C(C1=CC(=O)C(C)(C)O1)[C@@H]1CC=C([C@@H]2CC[C@H]3[C@@]2(C)CC[C@H]2C(C)(C)C(=O)[C@H](OC(=O)CC(C)(O)CC(=O)O)C[C@]32C)[C@H](O)O1 (stereo partly specified)
TGI (MDA-MB-231 breast): 35.8 µM
TGI (OVCAR-8 ovarian): 29.1 µM
TGI (SW-620 colon): 25.4 µM
TGI (UACC-62 melanoma): 23.5 µM
TGI (CCRF-CEM leukemia): 6.12 µM
TGI (CAKI-1 renal): 45.8 µM
TGI (NCI-H522 lung): 25.4 µM
TGI (HL-60(TB) leukemia): 38.4 µM
TGI (NCI-H226 lung): 31.3 µM
TGI (OVCAR-5 ovarian): 26.5 µM
TGI (SN12C renal): 28 µM
TGI (RXF 393 renal): 17 µM
TGI (OVCAR-3 ovarian): 23.6 µM
TGI (ACHN renal): 25.4 µM
TGI (EKVX NSCLC): 29.8 µM
TGI (MDA-N): 30.5 µM
TGI (HS 578T breast): 66.7 µM
TGI (HCT-15 colon): 24.9 µM
TGI (A549 NSCLC): 40.3 µM
TGI (HT29 colon): 34.4 µM
TGI (SK-OV-3 ovarian): 46.9 µM
TGI (HOP-62 NSCLC): 35 µM
TGI (MALME-3M melanoma): 28 µM
TGI (MCF7 breast): 20.9 µM
TGI (SR leukemia): 49.2 µM
TGI (COLO 205 colon): 24.5 µM
TGI (SK-MEL-2 melanoma): 26.7 µM
TGI (UO-31 renal): 26.3 µM
TGI (HCT-116 colon): 24 µM
TGI (U251 CNS): 25.2 µM
TGI (SF-539 CNS): 24.7 µM
TGI (KM12 colon): 29.7 µM
TGI (DU-145 prostate): 45.6 µM
TGI (SNB-19 CNS): > 75 µM
TGI (SF-295 CNS): > 75 µM
TGI (NCI-H460 lung): 40.7 µM
TGI (MDA-MB-435): 34.2 µM
TGI (SK-MEL-5 melanoma): 24.4 µM
TGI (LOX IMVI melanoma): 25.9 µM
TGI (PC-3 prostate): 30.2 µM
TGI (K-562 leukemia): > 75 µM
TGI (M14 melanoma): 27 µM
TGI (A498 renal): 26 µM
TGI (UACC-257 melanoma): 35.6 µM
TGI (IGROV1 ovarian): 26.3 µM
TGI (MOLT-4 leukemia): 30.8 µM
TGI (SF-268 CNS): 24.4 µM
TGI (TK-10 renal): > 75 µM
TGI (HOP-92 NSCLC): 24.7 µM
TGI (786-0 renal): 24.4 µM
TGI (RPMI-8226 leukemia): 5.24 µM
TGI (NCI/ADR-RES ovarian): 51.3 µM
TGI (NCI-H23 lung): 27.5 µM
TGI (BT-549 breast): 13.4 µM
